Source: the OligoGym collection
Where “and” joins values, the source holds several entries; their conditions need not be identical. Identical values can stand only once. After the bases stand the sugars from the 5' end (letter, count) and the backbone: PS all phosphorothioate, else s phosphorothioate and o phosphodiester by linkage. Methylation of C is not given here. e = 2'-O-(2-methoxyethyl) (MOE); k = constrained ethyl (cEt); d = 2'-deoxy (DNA)

Molecular target: KRAS
Details: ASO

TCCATTTATGTGACTA (sugars k3 d9 k3 e1, PS)
target mRNA inhibition (A431, 2 µM): 23%

TACTTTTTGACAAATG (sugars k3 d10 k3, PS)
target mRNA inhibition (A431, 2 µM): 37%

GTATCTTGTTGAGCTA (sugars k3 d10 k3, PS)
target mRNA inhibition (A431, 2 µM): 56%

CCATTCAAAGTTCACA (sugars kkkddddddddkekek, PS)
target mRNA inhibition (A431, 2 µM): 39%

GCTGTGAAACTCTCTA (sugars kkddddddddkekekk, PS)
target mRNA inhibition (A431, 2 µM): 16%

AGATTGTGCTGAGCTT (sugars kdddddddddkekeke, PS)
target mRNA inhibition (A431, 2 µM): 0%

GTCCAGTGATACTTTC (sugars kkkddddddddkekek, PS)
target mRNA inhibition (A431, 2 µM): 21%

TAGTGATTAGGTCAAA (sugars kkdddddddddkekek, PS)
target mRNA inhibition (A431, 2 µM): 51%

TAATAATCCCCATTTC (sugars k3 d10 k3, PS)
target mRNA inhibition (A431, 2 µM): 9%

ATGACTAATAGCAGTG (sugars k3 d10 k3, PS)
target mRNA inhibition (A431, 2 µM): 49%

CCATTTATGTGACTAG (sugars k3 d10 k3, PS)
target mRNA inhibition (A431, 0.125 µM): 70% and 67% | target mRNA inhibition (A431, 0.185 µM): 30% and 14% | target mRNA inhibition (A431, 0.556 µM): 56% and 35% | target mRNA inhibition (A431, 2 µM): 94% and 75% | target mRNA inhibition (A431, 5 µM): 83% and 72% | target mRNA inhibition (NCI-H460, 0.037 µM): 52.4%

AGACTTGAAAAGTGTT (sugars k3 d10 k3, PS)
target mRNA inhibition (A431, 2 µM): 28%

ATCTTATGGTTAGGGG (sugars k3 d10 k3, PS)
target mRNA inhibition (A431, 2 µM): 20%

TCTCTATGAAAGCTCA (sugars k3 d10 k3, PS)
target mRNA inhibition (A431, 0.037 µM): 61% | target mRNA inhibition (A431, 2 µM): 50% | target mRNA inhibition (A431, 5 µM): 96% and 92% | target mRNA inhibition (NCI-H460, 0.037 µM): 49.7%

TTGATTTGTCAGCAGG (sugars kkkdddddddddkeke, PS)
target mRNA inhibition (A431, 2 µM): 40%

AGTGATTAGGTCAAAT (sugars kddddddddddkekek, PS)
target mRNA inhibition (A431, 2 µM): 21%

TGACTAATAGCAGTGG (sugars k3 d10 k3, PS)
target mRNA inhibition (A431, 0.037 µM): 64% | target mRNA inhibition (A431, 2 µM): 58% | target mRNA inhibition (A431, 5 µM): 96% and 93% | target mRNA inhibition (NCI-H460, 0.037 µM): 53.3%

CCATTCAAAGTTCACA (sugars kkddddddddkekekk, PS)
target mRNA inhibition (A431, 0.185 µM): 0% | target mRNA inhibition (A431, 0.556 µM): 19% | target mRNA inhibition (A431, 1.667 µM): 31% | target mRNA inhibition (A431, 2 µM): 57% | target mRNA inhibition (A431, 5 µM): 39%

CAGTGTTAAGAGAACT (sugars kkddddddddkekekk, PS)
target mRNA inhibition (A431, 2 µM): 35%

GAGAATGGATATTCAA (sugars k3 d10 k3, PS)
target mRNA inhibition (A431, 2 µM): 8%

GATTGTGCTGAGCTTG (sugars k3 d9 k3 e1, PS)
target mRNA inhibition (A431, 2 µM): 30%

CTTTTAATGTCACAAG (sugars k3 d10 k3, PS)
target mRNA inhibition (A431, 2 µM): 9%

CTGAATTAGTCTCCAT (sugars k3 d10 k3, PS)
target mRNA inhibition (A431, 2 µM): 48%

CTTGATTTGTCAGCAG (sugars k3 d10 k3, PS)
target mRNA inhibition (A431, 2 µM): 51% and 44%

GCTGTGAAACTCTCTA (sugars kddddddddddkekek, PS)
target mRNA inhibition (A431, 2 µM): 41%

AAATTGTGCAATGGTG (sugars k3 d10 k3, PS)
target mRNA inhibition (A431, 2 µM): 48%

ACTTCATTGTTTAAAA (sugars k3 d10 k3, PS)
target mRNA inhibition (A431, 2 µM): 0%

TATAATGGTGAATATC (sugars k3 d10 k3, PS)
target mRNA inhibition (A431, 2 µM): 7%

TGGTGTAACATAGGTT (sugars kkddddddddkekekk, PS)
target mRNA inhibition (A431, 0.185 µM): 11% | target mRNA inhibition (A431, 0.556 µM): 33% | target mRNA inhibition (A431, 1.667 µM): 58% | target mRNA inhibition (A431, 2 µM): 55% | target mRNA inhibition (A431, 5 µM): 68%

ATGTAAATATAGCCCC (sugars k3 d10 k3, PS)
target mRNA inhibition (A431, 2 µM): 28%

AAGCTATTAGGAGTCT (sugars k3 d10 k3, PS)
target mRNA inhibition (A431, 2 µM): 65%

TAACCAGTGTTAAGAG (sugars k3 d10 k3, PS)
target mRNA inhibition (A431, 2 µM): 40%

TTAGTGATTAGGTCAA (sugars kkddddddddddkeke, PS)
target mRNA inhibition (A431, 2 µM): 22%

TGTTGAGCTATCCAAA (sugars k3 d10 k3, PS)
target mRNA inhibition (A431, 2 µM): 37%

TTGATTTGTCAGCAGG (sugars kdddddddddkekeke, PS)
target mRNA inhibition (A431, 2 µM): 22%

GAAAAGTGTTTATGCA (sugars k3 d10 k3, PS)
target mRNA inhibition (A431, 2 µM): 60%

TAATCTTTTAATGTCA (sugars k3 d10 k3, PS)
target mRNA inhibition (A431, 2 µM): 7%

TAGTGATTAGGTCAAA (sugars kkddddddddkekekk, PS)
target mRNA inhibition (A431, 2 µM): 42%

ACCAGTGTTAAGAGAA (sugars kkkddddddddkdkdk, PS)
target mRNA inhibition (A431, 2 µM): 50%

AAAAAAAAAATTAATG (sugars k3 d10 k3, PS)
target mRNA inhibition (A431, 2 µM): 6%

TACTAGTATGCCTTAA (sugars k3 d10 k3, PS)
target mRNA inhibition (A431, 2 µM): 16%

GTAATTAATCCATTTA (sugars k3 d10 k3, PS)
target mRNA inhibition (A431, 2 µM): 15%

TGTTTATGCAATGTTA (sugars kkdddddddddkekek, PS)
target mRNA inhibition (A431, 0.185 µM): 50% | target mRNA inhibition (A431, 0.556 µM): 46% | target mRNA inhibition (A431, 1.667 µM): 69% | target mRNA inhibition (A431, 2 µM): 56% | target mRNA inhibition (A431, 5 µM): 82%

AGGTAAAAGCTAACAG (sugars k3 d10 k3, PS)
target mRNA inhibition (A431, 0.037 µM): 46% | target mRNA inhibition (A431, 2 µM): 41% | target mRNA inhibition (NCI-H460, 0.037 µM): 37.3%

TAGGGCATTTCTGATG (sugars k3 d10 k3, PS)
target mRNA inhibition (A431, 2 µM): 20%
